According to patent EP0731697B1, “SSI TYRPHOSTINS AND PHARMACEUTICAL COMPOSITIONS” (priority 1993, dated 1995):
Like-named read-outs stand apart in the source and are kept apart here.

Assays:
[1] = tested on: murine peritoneal macrophages; assay: NO2- production by periodate-activated murine peritoneal macrophages; assay type: cell-based
Procedure: Nitrite (NO2-) levels were determined in supernatants at the time indicated, as described herein. (Table 5) Values are expressed as means of triplicate cultures. […] Two additional experiments yielded similar results.
NO2- the product of NO oxidation is used to determine NO produced. Nitrite concentration in supernatants of macrophages was measured by a microplate assay method. 100 ul aliquots of supernatants were incubated with an equal volume of Griess reagent (1% sulfanilamide/O.1% naphthylethylene diamine dihydrochloride/2.5% H3PO4) at room temperature for 10 min. The absorbance at 550nm was determined in a microplate reader. Sodium nitrite was used as a standard.
Mice were injected i.p. with 1 ml sodium periodate (5mM). Three to 4 days later, macrophages were washed from the peritoneal cavity with PBS. After centrifugation at 170g for 10 min at […], the cell pellet was resuspended in RPMI 1640 containing 10% heat-inactivated new born calf serum. Adherent macrophage monolayers were obtained by plating the cells in 96-well plastic trays at 4x10^5 cells/well for 2 hr at 37°C in 5% CO2/air. Nonadherent cells were removed by suction and complete medium was added. […]

[2] = tested on: Murine fibroblastic cells (A9); conditions: for Protection Against TNF-α-Induced Cytotoxicity (cell viability): 1440 min
Procedure: Tyrphostins at different concentration were added 2 hr prior to TNF. After 24 hrs cells viability was determined by vital staining using neutral red.
Recombinant human TNFα is added to a mouse fibroblastic cell line (A9), cultured in the presence of cyclohexamine and cell viability is monitored after 20 hours. […] The percentage of live cells was measured from 2 hours prior to administration until 4 hours after administration for a control and for TNF at concentrations of 0.2 ng/ml, 0.05 ng/ml, and 1.0 ng/ml.

[3] = molecular target: EGF receptor (Homo sapiens, UniProt P00533); conditions: even at concentrations above 100 uM; cited from earlier work
[4] = molecular target: Her-2/neu receptor (Homo sapiens, UniProt P04626); conditions: even at concentrations above 100 uM; cited from earlier work
[5] = tested on: PDGFR; conditions: even at concentrations above 100 uM; cited from earlier work
[6] = tested on: TNF-α; assay: LPS-induced production of TNF-α by activated murine peritoneal macrophages in vitro
Procedure: The amount of TNF-α was quantitated by assessing the extent of killing of the TNF-α sensitive cell line (A9) essentially as described by Ruff and Gilford, G. E. J. Immunol. […] Briefly, mouse A9 fibroblasts were plated in 96-well flat-bottom micro-titer plates at 30,000 cells /0.1 ml to establish a dense monolayer. After incubation for 24 hr at 37 C in a humidified 5% CO2 atmosphere, cycloheximide was added to a final concentration of 50 ug/ml and 100 ul of serially diluted test samples were added to the wells. After incubation for additional 18 hr the supernatants were carefully aspirated, the monolayer were washed twice with PBS and 200 ul of neutral red solution (0.02%) was added. After incubation for 2 hr, cells were washed and the dye that had been absorbed by the live cells was extracted using 200 ul of 50% ethanol. The concentration of the dye was determined by an ELISA autoreader using a 550 nm filter. Murine TNF-α ELISA kit from ENDOGEN Inc., was used for quancitation of murine TNF-α.
Mice were injected i.p. with 1 ml sodium periodate (5mM). Three to 4 days later, macrophages were washed from the peritoneal cavity with PBS. After centrifugation at 170g for 10 min at 40° C, the cell pellet was resuspended in RPMI 1640 containing 10% heat-inactivated new born calf serum. Adherent macrophage monolayers were obtained by plating the cells in 96-well plastic trays at 4x10^5 cells/well for 2 hr at 37°C in 5% CO2/air. Nonadherent cells were removed by suction and complete medium was added.

[7] = tested on: TNF-α; assay: LPS induced increase in serum TNF-α levels in mice; assay type: in vivo
From the text: TNF-α was implicated to mediate many of the toxic effect of LPS. For example, the effect of SSI 3 on serum TNF-α levels in mice which had been treated with LPS was investigated. LPS induced a rapid increase in serum TNF-α levels. […] […] The bioassay gave somewhat higher levels compared to the ELISA. This finding may indicate that the serum from LPS-treated mice contained in addition to TNF-α, other cytotoxic factors.
The amount of TNF-α was quantitated by assessing the extent of killing of the TNF-α sensitive cell line (A9) essentially as described by Ruff and Gilford, G. E. J. Immunol. 125, 1671-1677, (1980). Briefly, mouse A9 fibroblasts were plated in 96-well flat-bottom micro-titer plates at 30,000 cells /0.1 ml to establish a dense monolayer. After incubation for 24 hr at 37 C in a humidified 5% CO2 atmosphere, cycloheximide was added to a final concentration of 50 ug/ml and 100 ul of serially diluted test samples were added to the wells. After incubation for additional 18 hr the supernatants were carefully aspirated, the monolayer were washed twice with PBS and 200 ul of neutral red solution (0.02%) was added. After incubation for 2 hr, cells were washed and the dye that had been absorbed by the live cells was extracted using 200 ul of 50% ethanol. The concentration of the dye was determined by an ELISA autoreader using a 550 nm filter. Murine TNF-α ELISA kit from ENDOGEN Inc., was used for quancitation of murine TNF-α.

[8] = tested on: mice; assay: LPS-induced lethal toxicity in mice; conditions: for mice alive after 7 days: 100 ug/mouse 2 hours before or after LPS
[9] = Solubility in aqueous solution; assay type: physicochemical
[10] = LPS 200 µg/mouse, AG 300 µg/mouse 2 hrs prior to LPS, 1hr, mean (two single values)
[11] = LPS 200 µg/mouse, AG 300 µg/mouse 2 hrs prior to LPS, 2hr, mean (two single values)
[12] = no LPS (-), AG 300 µg/mouse, 1hr

Sequence of EGF receptor (P00533 25-1210): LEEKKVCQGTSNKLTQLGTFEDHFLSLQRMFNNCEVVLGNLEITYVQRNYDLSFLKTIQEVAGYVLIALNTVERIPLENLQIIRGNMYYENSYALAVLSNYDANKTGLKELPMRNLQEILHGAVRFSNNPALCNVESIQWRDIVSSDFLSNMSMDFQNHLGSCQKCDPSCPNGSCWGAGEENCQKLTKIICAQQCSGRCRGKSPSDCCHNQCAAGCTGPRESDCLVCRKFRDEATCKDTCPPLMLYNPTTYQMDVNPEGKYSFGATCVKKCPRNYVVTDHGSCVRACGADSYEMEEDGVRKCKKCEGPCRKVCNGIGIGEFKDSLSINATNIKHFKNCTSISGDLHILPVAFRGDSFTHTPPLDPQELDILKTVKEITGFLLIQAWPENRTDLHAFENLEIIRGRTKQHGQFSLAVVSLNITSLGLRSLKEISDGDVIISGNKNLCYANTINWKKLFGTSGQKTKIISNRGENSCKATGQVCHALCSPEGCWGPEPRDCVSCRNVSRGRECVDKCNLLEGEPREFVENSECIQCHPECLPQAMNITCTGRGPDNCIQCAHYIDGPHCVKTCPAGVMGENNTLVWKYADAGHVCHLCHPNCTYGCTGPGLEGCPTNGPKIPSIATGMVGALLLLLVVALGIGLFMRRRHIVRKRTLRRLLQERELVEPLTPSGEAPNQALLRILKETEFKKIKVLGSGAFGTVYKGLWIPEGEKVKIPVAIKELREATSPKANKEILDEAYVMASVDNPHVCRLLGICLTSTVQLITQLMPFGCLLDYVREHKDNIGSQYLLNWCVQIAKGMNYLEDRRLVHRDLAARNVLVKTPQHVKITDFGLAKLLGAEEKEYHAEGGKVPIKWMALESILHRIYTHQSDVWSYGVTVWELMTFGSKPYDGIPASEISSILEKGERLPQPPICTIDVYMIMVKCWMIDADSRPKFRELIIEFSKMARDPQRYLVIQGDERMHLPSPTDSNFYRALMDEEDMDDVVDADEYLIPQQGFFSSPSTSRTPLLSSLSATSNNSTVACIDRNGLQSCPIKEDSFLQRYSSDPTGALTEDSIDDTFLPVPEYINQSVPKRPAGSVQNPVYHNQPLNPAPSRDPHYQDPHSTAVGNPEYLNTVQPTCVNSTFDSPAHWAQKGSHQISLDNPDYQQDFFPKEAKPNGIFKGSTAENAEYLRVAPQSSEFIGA
Sequence of Her-2/neu receptor (P04626 23-1255): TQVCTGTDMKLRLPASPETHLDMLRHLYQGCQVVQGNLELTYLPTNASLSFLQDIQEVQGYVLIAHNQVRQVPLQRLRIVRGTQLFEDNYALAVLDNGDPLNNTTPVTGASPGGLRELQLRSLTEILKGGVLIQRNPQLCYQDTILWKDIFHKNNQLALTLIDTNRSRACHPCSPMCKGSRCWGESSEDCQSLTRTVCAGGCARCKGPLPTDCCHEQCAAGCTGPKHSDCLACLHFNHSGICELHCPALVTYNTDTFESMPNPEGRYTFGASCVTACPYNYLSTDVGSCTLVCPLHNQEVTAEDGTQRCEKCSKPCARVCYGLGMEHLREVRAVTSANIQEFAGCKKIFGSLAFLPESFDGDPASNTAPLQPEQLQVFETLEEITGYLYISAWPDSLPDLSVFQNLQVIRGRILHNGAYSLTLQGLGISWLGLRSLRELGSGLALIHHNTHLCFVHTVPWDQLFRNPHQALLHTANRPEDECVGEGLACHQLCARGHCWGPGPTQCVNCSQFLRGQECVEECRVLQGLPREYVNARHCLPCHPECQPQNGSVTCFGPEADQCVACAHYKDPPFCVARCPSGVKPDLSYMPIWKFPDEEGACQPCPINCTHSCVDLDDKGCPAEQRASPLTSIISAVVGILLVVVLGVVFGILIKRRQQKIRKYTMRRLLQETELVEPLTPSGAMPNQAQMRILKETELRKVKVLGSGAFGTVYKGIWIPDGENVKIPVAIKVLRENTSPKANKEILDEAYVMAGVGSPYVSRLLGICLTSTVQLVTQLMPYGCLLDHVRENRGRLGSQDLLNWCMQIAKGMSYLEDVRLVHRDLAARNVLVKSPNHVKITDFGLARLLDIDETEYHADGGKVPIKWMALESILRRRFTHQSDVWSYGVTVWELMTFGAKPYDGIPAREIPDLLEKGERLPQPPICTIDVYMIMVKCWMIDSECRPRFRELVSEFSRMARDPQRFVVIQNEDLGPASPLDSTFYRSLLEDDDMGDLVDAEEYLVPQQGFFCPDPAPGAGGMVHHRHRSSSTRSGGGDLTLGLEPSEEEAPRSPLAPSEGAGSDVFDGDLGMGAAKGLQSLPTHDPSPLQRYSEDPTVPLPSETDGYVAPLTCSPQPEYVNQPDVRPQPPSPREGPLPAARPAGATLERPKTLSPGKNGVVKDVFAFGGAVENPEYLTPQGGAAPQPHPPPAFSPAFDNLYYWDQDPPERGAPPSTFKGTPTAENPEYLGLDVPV

Row | Structure (SMILES) | NO2- Production by Macrophages ([1]; SSI 20 uM, LPS 10 ug, 1 DAY) | NO2- Production by Macrophages ([1]; SSI 20 uM, LPS 10 ug, 2 DAY) | NO2- Production by Macrophages ([1]; SSI 20 uM, LPS 10 ug, 3 DAY) | NO2- Production by Macrophages ([1]; SSI 20 uM, no LPS, 1 DAY) | NO2- Production by Macrophages ([1]; SSI 20 uM, no LPS, 2 DAY) | NO2- Production by Macrophages ([1]; SSI 20 uM, no LPS, 3 DAY) | NO2- Production by Macrophages ([1]; SSI 50 uM, no LPS, 1 DAY) | NO2- Production by Macrophages ([1]; SSI 50 uM, no LPS, 2 DAY) | NO2- Production by Macrophages ([1]; SSI 50 uM, no LPS, 3 DAY) | blocking TNF-α induced cytotoxicity in vitro [2] | Protection Against TNF-α-Induced Cytotoxicity (cell viability) ([2]; TNF-α 0 ng/ml) | Protection Against TNF-α-Induced Cytotoxicity (cell viability) ([2]; TNF-α 0.2 ng/ml, none 41±2.3) | Protection Against TNF-α-Induced Cytotoxicity (cell viability) ([2]; TNF-α 0.5 ng/ml, none 20±1.7) | TNF-α ([6]; LPS +) [pg/mL] | TNF-α ([6]; LPS -) [pg/mL] | Serum TNF-α [7, 10] | Serum TNF-α [7, 11] | Serum TNF-α [7, 12] [ng/mL] | also measured
1 | N#CC(C#N)=Cc1cc(O)c(O)c([N+](=O)[O-])c1 [SSI 8] | 42,7 µg | 80,6 µg | 83,4 µg | 10,4 µg | 13,5 µg | 11,8 µg | 5,8 µg | 8,1 µg | 5,9 µg | active | 100 | 67±4.1 | 46+2.8 | <5 | <5 |  |  |  | NO2- production in unstimulated and LPS-stimulated periodate-activated murine macrophages ([1]; LPS (10 mg/ml)): effectively inhibited; NO2- Production by Macrophages ([1]; SSI 50uM, LPS 10 ug, 1 DAY): 6,4 µg; NO2- Production by Macrophages ([1]; SSI 50uM, LPS 10 ug, 2 DAY): 11,5 µg; NO2- Production by Macrophages ([1]; SSI 50uM, LPS 10 ug, 3 DAY): 22,4 µg; effect on EGF receptor [3]: no effect; effect on Her-2/neu receptor [4]: no effect; effect on PDGFR [5]: no effect; ability to inhibit LPS-induced production of TNF-α by activated murine peritoneal macrophages in vitro ([6]; among the tyrphostins tested): most potent
2 | N#CC(=Cc1cc(O)c(O)c([N+](=O)[O-])c1)C(=O)O [SSI 9] | 71,3 µg | 112,9 µg | 136 µg | 41,8 µg | 57,2 µg | 45,1 µg | 36 µg | 51 µg | 33 µg | not |  |  |  | 17 | <5 | 17.7 (17.3, 18.2) ng/ml | 11.1 (10.5, 11.7) ng/ml | 16.0 | 
3 | N#CC(=Cc1cc(O)c(O)c([N+](=O)[O-])c1)C(=O)NCCCc1ccccc1 [SSI 10] | 42,3 µg | 100,9 µg | 124,9 µg | 23,4 µg | 27,9 µg | 44,6 µg | 23,3 µg | 12,3 µg | 13,2 µg |  |  |  |  |  |  | 18.7 (23.2, 19.2) ng/ml | 12.9 (13.6, 12.2) ng/ml | 14.0 | 
4 | N#CC(=Cc1ccc(O)c(O)c1)C(=O)NCc1ccccc1 [SSI 16] |  |  |  |  |  |  |  |  |  |  | 100 | 41±4.3 | 23±2.0 |  |  |  |  |  | LPS induced NO production ([1]; 50 um, added 2 hours prior to LPS, 24 hours): markedly inhibit; NO production ([1]; 50 um, from an initial level of 70 uM (no LPS), 24 hours): ~30 µM; NO production ([1]; 50 um, from an initial level of 40 (10 ug/ml of LPS), 24 hours): approximately 20 uM; more active in inhibiting TNF-α cytotoxicity in vitro [2]: two to three fold; TNF toxicity (percentage of live cells) ([2]; SSI 3 50 uM, SSI 16 2 uM, SSI 17 2 and 10 uM, A9 cells with cyclohexamine, viability after 20 hours, TNF 0.2, 0.05 and 1.0 ng/ml): prevent TNF toxicity to different degrees; LPS induced toxicity in vivo ([8]; 400 ug/mouse over 7 days with 10 mice): does not prevent
5 | N#CC(=Cc1ccc([N+](=O)[O-])c(O)c1)C(=O)NCCCc1ccccc1 [SSI 19] |  |  |  |  |  |  |  |  |  |  | 100 | 42±3.7 | 18±2.6 |  |  |  |  |  | preventing TNF toxicity ([2]; 2 and 10 uM): effective; toxicity to the indicator A9 cells ([2]; 50 um, by itself): toxic
6 | N#CC(=Cc1ccc([N+](=O)[O-])c(O)c1)C(=O)NCCCCc1ccccc1 [SSI 23] |  |  |  |  |  |  |  |  |  |  |  |  |  |  |  |  |  |  | behaviour after dilution of the stock (made in DMSO) in PBS [9]: rapidly precipitates; solubility in aqueous solution [9]: very soluble; preventing TNF toxicity in vitro ([2]; 50um, added at the same time, 1 hour prior to, or late (2hr) after the addition of TNF): effective; mice alive after 7 days ([8]; 2.2 mg LPS/mouse, LPS alone 1 alive): 4 out of 5 mice; mice alive after 7 days ([8]; 2.5 mg LPS/mouse, LPS alone 0 alive after 1 day): 2 out of 5 mice; induced lethality ([8]; even when administered late after LPS): prevent
